Measured values reported in publication PMC8624998, “Synthesis and Antiproliferative Evaluation of 3-Chloroazetidin-2-ones with Antimitotic Activity: Heterocyclic Bridged Analogues of Combretastatin A-4” (Pharmaceuticals, 2021).

Tested on: microtubule network of MCF-7 cells
Assay: Immunofluorescence (confocal) of microtubule network
Assay type: cell-based, human
Settings: MCF-7, 16 h; 10n 0.05, 0.1, 0.5 μM; CA-4 10 nM; paclitaxel 1 μM
Protocol: Subsequently, the effect of the representative compound 10n on the organisation of microtubule cytoskeleton of MCF-7 cells was also determined by confocal microscopy using an anti-tubulin antibody (Figure 8). […] The MCF-7 cell nuclei (stained blue) were also clearly observed (Figure 8A). […] The treatment of MCF-7 breast cancer cells with CA-4 tubulin-targeting agents has been reported to result in the formation of multiple micronuclei and mitotic catastrophes.
Confocal microscopy was used to study the effects on MCF-7 cytoskeleton following treatment with compound 10n following the protocols previously reported. For each experiment, all images were collected on the same day using identical parameters. MCF-7 cells were seeded (1 × 10^5 cells/mL) on eight chamber glass slides. Cells were either untreated or treated with vehicle (1% ethanol (v/v)), CA-4 (10 nM), Paclitaxel (1 μM) and β-lactam compound 10n at 50 nM, 100 nM and 500 nM concentrations for 16 h. The cells were then gently washed in PBS and then fixed for 30 min with 100% ice-cold MeOH. Cells were washed three times in PBS for 10 min and then permeabilised in 0.5% Triton X-100. The cells were subsequently washed in PBS containing 0.1% Tween (PBST), and then blocked in bovine serum albumin (5%) diluted in PBST. Cells were then incubated with a mouse monoclonal anti-α-tubulin−FITC antibody (clone DM1A) (1:200) for 2 h at 20 °C. Following washes in PBST, cells were incubated with Alexa Fluor 488 dye (1:500) for 1 h at 20 °C. Following further washes in PBST, the cells were mounted in Ultra Cruz Mounting Media, which contained 4,6-diamino-2-phenolindol dihydrochloride (DAPI). The images were photographed using Leica SP8 confocal microscopy with the Leica application suite X software program. Experiments were performed on three independent occasions.
Figure 8 Compound 10n depolymerises the microtubule network of MCF-7 breast cancer cells. Cells were treated with (A) vehicle control ([…]), (B) CA-4 (10 nM), (C) paclitaxel (1 μM) and compound 10n, (D) (50 nM), (E) (100 nM) and (F) (500 nM) for 16 h. […]

CC(=O)O[C@H]1C(=O)[C@@]2(C)[C@H]([C@H](OC(=O)c3ccccc3)[C@]3(O)C[C@H](OC(=O)[C@H](O)[C@@H](NC(=O)c4ccccc4)c4ccccc4)C(C)=C1C3(C)C)[C@]1(OC(C)=O)CO[C@@H]1C[C@@H]2O [paclitaxel]
effect on microtubule network: hyper-polymerisation of tubulin
